Test results published in US10681909B2, “Herbicidal triazoles” (FMC Corporation, priority 2014, dated 2020).

Key:
wheat = test: Test A postemergence; type: in vivo, Triticum aestivum; settings: Triticum aestivum, post-emergence, 240 h, 0 to 100 scale (0 no effect, 100 complete control), approx. 10 d, read-out: Plant response rating, Wheat; for plant injury at 125 g/ha: 125 g ai/ha; for plant injury at 500 g/ha: 500 g ai/ha
How it was run: (§1)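 Herbicidal response was scored on plants treated pre- or postemergence with surfactant-containing, non-phytotoxic solvent formulations. Preemergence meant a directed spray onto soil (loam–sand) holding sown seed; postemergence plants were at one to two leaves.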

pigweed [1] = test: Test A postemergence; type: in vivo, Amaranthus retroflexus; settings: Amaranthus retroflexus, post-emergence, 240 h, 0 to 100 scale (0 no effect, 100 complete control), approx. 10 d, read-out: Plant response rating, Pigweed; for pest or weed control at 125 g/ha: 125 g ai/ha; for pest or weed control at 500 g/ha: 500 g ai/ha
How it was run: as §1

foxtail, giant = test: Test A postemergence; type: in vivo, Setaria faberii; settings: Setaria faberi, post-emergence, 240 h, 0 to 100 scale (0 no effect, 100 complete control), approx. 10 d, read-out: Plant response rating, Foxtail, Giant; for pest or weed control at 125 g/ha: 125 g ai/ha; for pest or weed control at 500 g/ha: 500 g ai/ha
How it was run: as §1

pigweed [2] = test: Test A preemergence; type: in vivo, Amaranthus retroflexus; settings: Amaranthus retroflexus, pre-emergence, 240 h, 0 to 100 scale (0 no effect, 100 complete control), read-out: Plant response rating, Pigweed; for pest or weed control at 125 g/ha: 125 g ai/ha; for pest or weed control at 500 g/ha: 500 g ai/ha, approx. 10 d
How it was run: as §1

sedge, umbrella = test: Test B flooded paddy test; type: in vivo, Cyperus difformis; settings: Cyperus difformis, 360 h, 125 g ai/ha, applied to paddy water at 2-leaf stage, visual rating after 13 to 15 d, scale 0 (no effect) to 100 (complete control), read-out: Plant response rating, Sedge, Umbrella, Flood
How it was run: (§2)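 Pots were flooded to 3 cm above the soil at treatment, and compounds were applied directly into the paddy water. That depth was held throughout. After 13 to 15 d in a greenhouse, plants were rated visually against untreated controls.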

barnyardgrass = test: Test B flooded paddy test; type: in vivo, Echinochloa crus-galli; settings: Echinochloa crus-galli, 360 h, 125 g ai/ha, applied to paddy water at 2-leaf stage, visual rating after 13 to 15 d, scale 0 (no effect) to 100 (complete control), read-out: Plant response rating, Barnyardgrass, Flood
How it was run: as §2

SMILES | plant injury at 125 g/ha (wheat) [%] | plant injury at 500 g/ha (wheat) [%] | pest or weed control at 125 g/ha (pigweed [1]) [%] | pest or weed control at 500 g/ha (pigweed [1]) [%] | pest or weed control at 125 g/ha (foxtail, giant) [%] | pest or weed control at 500 g/ha (foxtail, giant) [%] | pest or weed control at 125 g/ha (pigweed [2]) [%] | pest or weed control at 500 g/ha (pigweed [2]) [%] | pest or weed control at 125 g/ha (sedge, umbrella) [%] | pest or weed control at 125 g/ha (barnyardgrass) [%]
Cn1nc(-c2ccc(F)cc2)nc1Oc1cccc(C(F)(F)F)c1 [Compound 5, 3-(4-fluorophenyl)-1-methyl-5-[3-(trifluoromethyl)phenoxy]-1H-1,2,4-triazole] | 0 | 10 | 90 | 100 | 20 | 70 | 40 | 50 |  | 
CCn1nc(-c2ccc(F)cc2)nc1C(=O)c1ccnc(C(F)(F)F)c1 [Compound 19, [1-ethyl-3-(4-fluorophenyl)-1H-1,2,4-triazol-5-yl][2-(trifluoromethyl)-4-pyridinyl]methanone] | 0 | 0 | 0 | 30 | 0 | 0 | 0 | 0 | 0 | 0
